The record followed here is patent US20250099448A1, “HETEROCYCLIC COMPOUNDS” (Hoffmann-La Roche Inc., priority 2022, published 2025).

The test concerns the target T1, MAGL protein (Homo sapiens, UniProt Q99685).
T1 sequence (Q99685 1-303): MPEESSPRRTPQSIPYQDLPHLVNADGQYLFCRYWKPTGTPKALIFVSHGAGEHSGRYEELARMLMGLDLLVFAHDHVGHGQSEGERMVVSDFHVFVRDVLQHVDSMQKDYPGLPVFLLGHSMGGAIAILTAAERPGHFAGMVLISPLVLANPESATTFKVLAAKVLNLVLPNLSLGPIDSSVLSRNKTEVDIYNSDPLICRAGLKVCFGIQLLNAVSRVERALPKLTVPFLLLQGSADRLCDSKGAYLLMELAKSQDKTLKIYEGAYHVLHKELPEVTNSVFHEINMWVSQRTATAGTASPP
In words: 2-AG assay: MAGL inhibitory activity by hydrolysis of 2-arachidonoylglycerol to arachidonic acid, followed by mass spectrometry. It is filed as biochemical. To be noted: 8 μM 2-arachidonoylglycerol, 15 min preincubation, 30 min reaction at RT, RapidFire MS readout. The method in brief: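 MAGL was preincubated 15 min at RT with compound (12.5 to […], 3-fold steps) in 50 mM TRIS, 1 mM EDTA, 0.01% Tween-20, 2.5% DMSO. The reaction ran 30 min at RT with 8 μM 2-AG. Arachidonic acid was quantified by RapidFire SPE-MS/MS against a d8-arachidonic acid internal standard.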

A word on the IC50: it is the concentration needed to halve the response being measured. Read a low IC50 as higher potency.

`O=C(N1CC2(CC(Cc3ccc(OC(F)(F)F)cn3)C2)C1)N1CC2(CC(c3nnc(C4CC4)[nH]3)C2)C1` [compound 8] registered a concentration for half-maximal inhibition (IC50) of 0.13 nM.

The compound `O=C(N1CC2(CC(Cc3ccc(OC(F)(F)F)cn3)C2)C1)N1CC2(CC(c3nnc(C4(O)CC4)[nH]3)C2)C1` [compound 9] came in with an IC50 of 0.57 nM.

With `CS(=O)(=O)c1ccc(CC2CC3(C2)CN(C(=O)N2CC4(CC(c5nnc(C6CC6)[nH]5)C4)C2)C3)cc1` [compound 12], the IC50 is 0.81 nM.

Take `CS(=O)(=O)c1ccc(CC2CC3(C2)CN(C(=O)N2CC4(CC(c5nnc(C6(O)CC6)[nH]5)C4)C2)C3)cc1` [compound 13]: half-maximal inhibition (IC50) was put at 4.72 nM.

`CS(=O)(=O)c1ccc(CC2CC3(C2)CN(C(=O)N2CC4(CC(c5nnc(C6CCC6)[nH]5)C4)C2)C3)cc1` [compound 14] gave an IC50 of 14.8 nM.

For `CS(=O)(=O)c1cccc(CC2CC3(C2)CN(C(=O)N2CC4(CC(c5nnc(C6CC6)[nH]5)C4)C2)C3)c1` [compound 15], the IC50 was determined as 1.33 nM.

In the case of `CS(=O)(=O)c1cccc(CC2CC3(C2)CN(C(=O)N2CC4(CC(c5nnc(C6(O)CC6)[nH]5)C4)C2)C3)c1` [compound 16], the IC50 was found to be 1.51 nM.

On to `CS(=O)(=O)c1cccc(CC2CC3(C2)CN(C(=O)N2CC4(CC(c5nnc(C6CCC6)[nH]5)C4)C2)C3)c1` [compound 17], for which inhibition was half-maximal at 15.2 nM (IC50).

Compound `CS(=O)(=O)c1cc(F)cc(CC2CC3(C2)CN(C(=O)N2CC4(CC(c5nnc(C6CC6)[nH]5)C4)C2)C3)c1` [compound 18] showed a 50% inhibitory concentration (IC50) of 0.3 nM. Compared with the last compound, the IC50 is about 51-fold lower.

The compound `CS(=O)(=O)c1cc(F)cc(CC2CC3(C2)CN(C(=O)N2CC4(CC(c5nnc(C6(O)CC6)[nH]5)C4)C2)C3)c1` [compound 19] came in with an IC50 of 4.81 nM.

In turn, `O=C(N1CC2(CC(Cc3cnc(C(F)(F)F)nc3)C2)C1)N1CC2(CC(c3nnc(C4CC4)[nH]3)C2)C1` [compound 20] had an IC50 of 0.74 nM.

Compound `O=C(N1CC2(CC(Cc3cnc(C(F)(F)F)nc3)C2)C1)N1CC2(CC(c3nnc(C4(O)CC4)[nH]3)C2)C1` [compound 21] had an IC50 of 5.33 nM. Compared with the last compound, the IC50 is about 7.2-fold higher.

The compound `O=C(N1CC2(CC(Cc3ccc(C(F)(F)F)nn3)C2)C1)N1CC2(CC(c3nnc(C4CC4)[nH]3)C2)C1` [compound 22] showed an IC50 of 0.8 nM.

`O=C(N1CC2(CC(Cc3ccc(C(F)(F)F)nn3)C2)C1)N1CC2(CC(c3nnc(C4(O)CC4)[nH]3)C2)C1` [compound 23] showed a half-inhibitory concentration (IC50) of 4.43 nM.

`CS(=O)(=O)c1cc(F)ccc1CC1CC2(C1)CN(C(=O)N1CC3(CC(c4nnc(C5CC5)[nH]4)C3)C1)C2` [compound 24] had an IC50 of 0.7 nM.

As to `CS(=O)(=O)c1cc(F)ccc1CC1CC2(C1)CN(C(=O)N1CC3(CC(c4nnc(C5CCC5)[nH]4)C3)C1)C2` [compound 25], it took 4.48 nM to reach half-maximal inhibition (IC50). This IC50 lies about 6.4-fold higher than the previous one.

For `N#Cc1cc(CC2CC3(C2)CN(C(=O)N2CC4(CC(c5nnc(C6CC6)[nH]5)C4)C2)C3)ccc1C(F)(F)F` [compound 26], 0.02 nM corresponded to half-maximal inhibition (IC50).

Turning to `N#Cc1cc(CC2CC3(C2)CN(C(=O)N2CC4(CC(c5nnc(C6(O)CC6)[nH]5)C4)C2)C3)ccc1C(F)(F)F` [compound 27], half-maximal inhibition (IC50) required 0.11 nM.

In turn, `O=C(N1CC2(CC(Cc3ncc(C(F)(F)F)cn3)C2)C1)N1CC2(CC(c3nnc(C4CC4)[nH]3)C2)C1` [compound 28] had a half-inhibitory concentration (IC50) of 0.94 nM.

`O=C(N1CC2(CC(Cc3ccc(F)cc3C(F)(F)F)C2)C1)N1CC2(CC(c3nnc(C4CC4)[nH]3)C2)C1` [compound 33]: 0.01 nM corresponded to half-maximal inhibition (IC50).

`O=C(N1CC2(CC(Cc3ccc(F)cc3C(F)(F)F)C2)C1)N1CC2(CC(c3nnc(C4(O)CC4)[nH]3)C2)C1` [compound 34] yielded an IC50 of 0.01 nM.

`O=C(N1CC2(CC(Cc3ccc(F)cc3F)C2)C1)N1CC2(CC(c3nnc(C4CC4)[nH]3)C2)C1` [compound 35] yielded an IC50 of 0.07 nM. Against the preceding compound, the IC50 is about 7-fold higher.

On to `O=C(N1CC2(CC(Cc3ccc(F)cc3F)C2)C1)N1CC2(CC(c3nnc(C4(O)CC4)[nH]3)C2)C1` [compound 36], for which the IC50 was 0.05 nM. This IC50 and that of the compound before are within 1.5-fold of each other.

Consider `O=C(N1CC2(CC(Cc3ccc(C(F)(F)F)cc3F)C2)C1)N1CC2(CC(c3nnc(C4CC4)[nH]3)C2)C1` [compound 37], for which the IC50 worked out at 0.01 nM.

Take `O=C(N1CC2(CC(Cc3ccc(C(F)(F)F)cc3F)C2)C1)N1CC2(CC(c3nnc(C4(O)CC4)[nH]3)C2)C1` [compound 38]: the IC50 was 0.01 nM. This counts as picomolar.

Take `CS(=O)(=O)c1cc(C(F)(F)F)ccc1CC1CC2(C1)CN(C(=O)N1CC3(CC(c4nnc(C5CC5)[nH]4)C3)C1)C2` [compound 39]: half-maximal inhibition (IC50) required 0.15 nM.

Compound `CS(=O)(=O)c1cc(C(F)(F)F)ccc1CC1CC2(C1)CN(C(=O)N1CC3(CC(c4nnc(C5(O)CC5)[nH]4)C3)C1)C2` [compound 40] yielded an IC50 of 0.4 nM.

In the case of `CS(=O)(=O)c1cc(CC2CC3(C2)CN(C(=O)N2CC4(CC(c5nnc(C6CC6)[nH]5)C4)C2)C3)ccc1C(F)(F)F` [compound 41], the half-maximal inhibitory concentration (IC50) turned out to be 0.24 nM.

Take `CS(=O)(=O)c1cc(CC2CC3(C2)CN(C(=O)N2CC4(CC(c5nnc(C6(O)CC6)[nH]5)C4)C2)C3)ccc1C(F)(F)F` [compound 42]: the IC50 was determined as 0.88 nM. Against the preceding compound, the IC50 is about 3.7-fold higher.

With `O=C(N1CC2(CC(Cc3ccc(F)cn3)C2)C1)N1CC2(CC(c3nnc(C4CC4)[nH]3)C2)C1` [compound 43], it took 0.58 nM to reach half-maximal inhibition (IC50). This IC50 lies about 1.5-fold lower than the previous one.

`O=C(N1CC2(CC(Cc3ccc(F)cn3)C2)C1)N1CC2(CC(c3nnc(C4(O)CC4)[nH]3)C2)C1` [compound 44] yielded an IC50 of 2.24 nM.

As to `O=C(N1CC2(CC(Cc3cncc(F)c3)C2)C1)N1CC2(CC(c3nnc(C4CC4)[nH]3)C2)C1` [compound 45], the IC50 amounted to 2.37 nM.

`CS(=O)(=O)c1ccc(CC2CC3(C2)CN(C(=O)N2CC4(CC(c5nnc(C6CC6)[nH]5)C4)C2)C3)cc1C(F)(F)F` [compound 46]: the IC50 was 0.9 nM. This IC50 lies about 2.6-fold lower than the previous one.

In turn, `CS(=O)(=O)c1ccc(CC2CC3(C2)CN(C(=O)N2CC4(CC(c5nnc(C6(O)CC6)[nH]5)C4)C2)C3)cc1C(F)(F)F` [compound 47] yielded an IC50 of 0.27 nM.

With `O=C(N1CC2(CCC(Cc3ccc(C(F)(F)F)cn3)CC2)C1)N1CC2(CC(c3nnc(C4CC4)[nH]3)C2)C1` [compound 48], the IC50 is 0.13 nM.

Compound `O=C(N1CC2(CCC(Cc3ccc(C(F)(F)F)cn3)CC2)C1)N1CC2(CC(c3nnc(C4(O)CC4)[nH]3)C2)C1` [compound 49] registered an IC50 of 0.81 nM.

Compound `O=C(N1CC2(CCC(Cc3ccc(C(F)(F)F)cn3)C2)C1)N1CC2(CC(c3nnc(C4CC4)[nH]3)C2)C1` (stereo not shown) [compound 50] registered an IC50 of 0.19 nM. Compared with the last compound, the IC50 is about 4.3-fold lower.

Take `O=C(N1CC2(CCC(Oc3ccc(C(F)(F)F)nn3)CC2)C1)N1CC2(CC(c3nnc(C4CC4)[nH]3)C2)C1` [compound 51]: the IC50 was determined as 1.77 nM. This IC50 lies about 9.3-fold higher than the previous one.

Compound `O=C(N1CC2(CCC(Oc3ccc(C(F)(F)F)nn3)CC2)C1)N1CC2(CC(c3nnc(C4CCC4)[nH]3)C2)C1` [compound 52] had an IC50 of 18.7 nM. Compared with the last compound, the IC50 is about 11-fold higher.

With `CP1(=O)CCN(c2ccc(C3CN(C(=O)N4CC5(CC(c6nnc(C7CC7)[nH]6)C5)C4)C3)cn2)CC1` [compound 53], the IC50 was determined as 179 nM.

Compound `O=C(N1CC2(CC(CNC3(C(F)(F)F)CC3)C2)C1)N1CC2(CC(c3nnc(C4CC4)[nH]3)C2)C1` [compound 54] showed an IC50 of 2.8 nM.

The compound `O=C(N1CC2(CC(CNC3(C(F)(F)F)CC3)C2)C1)N1CC2(CC(c3nnc(C4(O)CC4)[nH]3)C2)C1` [compound 55] registered an IC50 of 22 nM. Against the preceding compound, the IC50 is about 7.9-fold higher.

As to `O=C(N1CC2(CC(NS(=O)(=O)c3cccc(C(F)(F)F)c3)C2)C1)N1CC2(CC(c3nnc(C4CC4)[nH]3)C2)C1` [compound 56], 0.74 nM corresponded to half-maximal inhibition (IC50).
